Test results published in patent US9193731B2, “Antimicrobial compounds and methods of making and using the same” (Melinta Therapeutics, Inc., priority 2009, dated 2015).

System: Escherichia coli strain ATCC25922
Assay: standard microdilution assay to determine minimum inhibitory concentrations (MICs)
Assay type: cell-based
Conditions: Escherichia coli strain ATCC25922, microdilution
Outline: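 Broth microdilution MIC against E. coli ATCC25922, following CLSI protocols, typically in a 100 microliter final volume. Results reported as +/− relative to a 16 micrograms/ml cutoff.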

Row | Structure (SMILES) | E. coli ATCC25922 MIC
1 | N=C(N)NCCNC(=O)c1ccc(-n2cc3cc(-c4ccc(S(=O)(=O)NC5CCNCC5)cc4)[nH]c3nc2=O)cc1 [Compound 1048] | + (a “+” indicates that the compound has an MIC value of 16 micrograms/ml or less)
2 | N=C(N)NCCCNC(=O)c1ccc(-n2cc3cc(-c4ccc(S(=O)(=O)NC5CCNC5)cc4)[nH]c3nc2=O)cc1 (stereo not shown) [Compound 1310] | + (a “+” indicates that the compound has an MIC value of 16 micrograms/ml or less)
3 | N=C(N)NCCCNCc1ccc(-n2cc3cc(CCS(=O)(=O)N(Cc4ccc(Cl)c(Cl)c4)C4CCNCC4)[nH]c3nc2=O)cc1 [Compound 913] | + (a “+” indicates that the compound has an MIC value of 16 micrograms/ml or less)
4 | N=C(N)NCCCNCc1ccc(-n2cc3cc(-c4cc(CCCCN)cc(C(N)=O)c4)[nH]c3nc2=O)cc1 [Compound 2069a] | + (a “+” indicates that the compound has an MIC value of 16 micrograms/ml or less)
5 | CSCc1cc(OCC(F)CN)cc(-c2cc3cn(-c4ccc(CNCCCNC(=N)N)cc4)c(=O)nc3[nH]2)c1 (stereo not shown) [Compound 2049a] | + (a “+” indicates that the compound has an MIC value of 16 micrograms/ml or less)
6 | N=C(N)NCCCNCc1ccc(-n2cc3cc(-c4ccc(S(=O)(=O)N(CCCC(N)=O)C5CCNCC5)cc4)[nH]c3nc2=O)cc1 [Compound 843] | + (a “+” indicates that the compound has an MIC value of 16 micrograms/ml or less)
7 | N=C(N)NCCCNCc1ccc(-n2cc3cc(-c4cc(CN5CCS(=O)(=O)CC5)cc(N5CCNCC5)c4)[nH]c3nc2=O)cc1 [Compound 915] | + (a “+” indicates that the compound has an MIC value of 16 micrograms/ml or less)
8 | NC(N)=NCCCNCc1ccc(-n2cc3cc(-c4cccc(S(=O)(=O)N(CCc5cccc([N+](=O)[O-])c5)C5CCNCC5)c4)[nH]c3nc2=O)cc1 [Compound 1185] | + (a “+” indicates that the compound has an MIC value of 16 micrograms/ml or less)
9 | N=C(N)NCCNCc1ccc(-n2cc3cc(-c4ccc(S(=O)(=O)NC5CCNCC5)cc4)[nH]c3nc2=O)cc1 [Compound 1104] | + (a “+” indicates that the compound has an MIC value of 16 micrograms/ml or less)
10 | N=C(N)NCCCNC(=O)c1ccc(-n2cc3cc(-c4ccc(S(=O)(=O)CCCNC5CCNCC5)cc4)[nH]c3nc2=O)cc1 [Compound 1261] | + (a “+” indicates that the compound has an MIC value of 16 micrograms/ml or less)
11 | COc1cc(-n2cc3cc(-c4cccc(OCC(C)(C)CN)c4)[nH]c3nc2=O)ccc1CNCCCNC(=N)N [Compound 1328] | + (a “+” indicates that the compound has an MIC value of 16 micrograms/ml or less)
12 | N=C(N)NC1CCN(Cc2ccc(-n3cc4cc(-c5ccc(S(=O)(=O)N(Cc6ccncc6)C6CCNCC6)cc5)[nH]c4nc3=O)cc2)C1 (stereo not shown) [Compound 1178] | + (a “+” indicates that the compound has an MIC value of 16 micrograms/ml or less)
13 | COCCOCCN(C1CCNCC1)S(=O)(=O)c1cccc(-c2cc3cn(-c4ccc(CNCCCNC(=N)N)cc4)c(=O)nc3[nH]2)c1 [Compound 1161] | + (a “+” indicates that the compound has an MIC value of 16 micrograms/ml or less)
14 | N=C(N)NCCCNCc1ccc(-n2cc3cc(-c4ccc(S(=O)(=O)CCCNC5CCNCC5)cc4)[nH]c3nc2=O)cc1 [Compound 1285] | + (a “+” indicates that the compound has an MIC value of 16 micrograms/ml or less)
15 | N=C(N)NCCCNCc1ccc(-n2cc3cc(-c4ccc(S(=O)(=O)N(CCCn5ccc(C(F)(F)F)n5)C5CCNCC5)cc4)[nH]c3nc2=O)cc1 [Compound 934] | + (a “+” indicates that the compound has an MIC value of 16 micrograms/ml or less)
16 | NCCCNCc1ccc(-n2cc3cc(-c4cccc(S(=O)(=O)NC5CCNCC5)c4)[nH]c3nc2=O)cc1 [Compound 823] | + (a “+” indicates that the compound has an MIC value of 16 micrograms/ml or less)
17 | N=C(N)NCCCNCc1ccc(-n2cc3cc(-c4ccc(S(=O)(=O)N(CC5CC5c5ccncc5)C5CCNCC5)cc4)[nH]c3nc2=O)cc1 (stereo not shown) [Compound 866] | + (a “+” indicates that the compound has an MIC value of 16 micrograms/ml or less)
18 | N=C(N)NCCCNCc1ccc(-n2cc3cc(-c4ccc(S(=O)(=O)N(Cc5cc(Cl)cc(C(F)(F)F)c5)C5CCNCC5)cc4)[nH]c3nc2=O)cc1 [Compound 922] | + (a “+” indicates that the compound has an MIC value of 16 micrograms/ml or less)
19 | CS(=O)(=O)NCc1cc(OCC(F)CN)cc(-c2cc3cn(-c4ccc(CNCCCNC(=N)N)cc4)c(=O)nc3[nH]2)c1 (stereo not shown) [Compound 2037a] | − (a “−” indicates that the compound has an MIC value greater than 16 micrograms/ml)
20 | N=C(N)NCCCNCc1ccc(-n2cc3cc(-c4ccc(S(=O)(=O)N(Cc5ccccc5SC(F)(F)F)C5CCNCC5)cc4)[nH]c3nc2=O)cc1 [Compound 756] | + (a “+” indicates that the compound has an MIC value of 16 micrograms/ml or less)
21 | N=C(N)NCCCNCc1ccc(-n2cc3cc(-c4cc(C(=O)N(CCO)CCO)cc(N5CCNCC5)c4)[nH]c3nc2=O)cc1 [Compound 895] | + (a “+” indicates that the compound has an MIC value of 16 micrograms/ml or less)
22 | N=C(N)NCCCNC(c1ccc(-n2cc3cc(-c4cc(CCCCN)cc(OC(F)(F)F)c4)[nH]c3nc2=O)cc1)C(F)(F)F (stereo not shown) [Compound 2081a] | + (a “+” indicates that the compound has an MIC value of 16 micrograms/ml or less)
23 | NCc1ccc(-n2cc3cc(-c4ccc(S(=O)(=O)N(CCCN5CCCC(O)C5)C5CCNCC5)cc4)[nH]c3nc2=O)cc1 (stereo not shown) [Compound 1092] | − (a “−” indicates that the compound has an MIC value greater than 16 micrograms/ml)
24 | N=C(N)NCCCNC(=O)c1ccc(-n2cc3cc(-c4ccc(S(=O)(=O)N(Cc5ccc(Cl)c(Cl)c5)C5CCNCC5)cc4)[nH]c3nc2=O)cc1 [Compound 995] | + (a “+” indicates that the compound has an MIC value of 16 micrograms/ml or less)
25 | N=C(N)NCCCNC(=O)c1ccc(-n2cc3cc(-c4cccc(S(=O)(=O)N(CCCn5ccc(C(F)(F)F)n5)C5CCNCC5)c4)[nH]c3nc2=O)cc1 [Compound 1124] | − (a “−” indicates that the compound has an MIC value greater than 16 micrograms/ml)
26 | N=C(N)NCCCNCc1ccc(-n2cc3cc(-c4cc(C(F)(F)F)cc(S(=O)(=O)NCCN)c4)[nH]c3nc2=O)cc1 [Compound 2067a] | + (a “+” indicates that the compound has an MIC value of 16 micrograms/ml or less)

Same assay, conditions: Escherichia coli, ATCC25922, Escherichia coli strain ATCC25922, microdilution; read-out: E. coli ATCC25922 MIC

Row | Structure (SMILES) | MIC [µg/mL]
27 | NCCCNCc1ccc(-c2cn3cc(-c4ccc(C(=O)NCCO)cc4)[nH]c3nc2=O)cc1 [Compound 827] | > 16
28 | Cc1cc(CNc2cn3cc(-c4ccc(CNCCCN)cc4)c(=O)nc3[nH]2)no1 [Compound 679] | > 16
29 | N=C(N)NCCCNCc1ccc(-c2cn3nc(-c4ccc(F)cc4)[nH]c3nc2=O)cc1 [Compound 663] | > 16

More lines, now with the values ahead:

Row | MIC [µg/mL] | Structure (SMILES)
30 | > 16 | CS(=O)(=O)NCc1cc2cn(-c3ccc(CNCCCNC(=N)N)cc3)c(=O)nc2[nH]1 [Compound 1153]
31 | > 16 | NCCCc1cccc(-c2cc3cn(-c4ccc(C(N)C(F)(F)F)cc4)c(=O)nc3[nH]2)c1 (stereo not shown) [Compound 2080a]
32 | < 16 | NCc1ccc(-n2cc3cc(-c4cc(F)c(C(=O)NC5CCNCC5)c(F)c4)[nH]c3nc2=O)cc1 [Compound 258]
33 | > 16 | NCc1ccc(-n2cc3cc(-c4ccc(S(=O)(=O)N(Cc5ccc(Cl)c(Cl)c5)C5CCNCC5)cc4)[nH]c3nc2=O)cc1 [Compound 945]
34 | > 16 | NCCCNCc1ccc(-c2cn3cc(-c4ccc(S(=O)(=O)N5CC[C@@H](F)C5)cc4)[nH]c3nc2=O)cc1 [Compound 743]
35 | > 16 | N=C(N)NCCCNC(=O)c1ccc(-n2cc3cc(C4CCCNC4)[nH]c3nc2=O)cc1 (stereo not shown) [Compound 1257]
36 | > 16 | N=C(N)N[C@H]1CCCN(Cc2ccc(-n3cc4cc[nH]c4nc3=O)cc2)C1 [Compound 1155]
37 | > 16 | NCCCNCc1ccc(-c2cn3cc(-c4ccc(Br)cc4)[nH]c3nc2=O)cc1 [Compound 617, 6-{4-[(3-Amino-propylamino)-methyl]-phenyl}-2-(4-bromo-phenyl)-1H-imidazo[1,2-a]pyrimidin-7-one]
38 | < 16 | CN1CCC(NC(=O)c2ccc(-c3cc4cn(-c5ccc(CN(CCCN)CCCN)cc5)c(=O)nc4[nH]3)cc2)CC1 [Compound 204]
39 | > 16 | NCCCN(CCCN)Cc1ccc(-n2cc3cc[nH]c3nc2=O)cc1 [Compound 154]
40 | < 16 | NCCCNCc1ccc(-n2cc3cc(CCN)[nH]c3nc2=O)cc1 [Compound 624]
41 | > 16 | NCc1ccc(-n2cc3cc[nH]c3nc2=O)cc1 [Compound 142]
42 | > 16 | O=c1nc2[nH]c(-c3ccc(F)cc3)cc2cn1C1CCNC1 (stereo not shown) [Compound 561]
43 | > 16 | NCCCN(CCCN)Cc1ccc(-n2cc3cc(-c4ccc(CO)cc4)[nH]c3nc2=O)cc1 [Compound 179]
44 | > 16 | Cc1cc(CN(C(=O)c2ccc(-c3cc4cn(-c5ccc(CN(CCCN)CCCN)cc5)c(=O)nc4[nH]3)cc2)C2CCNCC2)no1 [Compound 226]
45 | > 16 | O=C(NC1CCNCC1)c1c(F)cc(-c2cc3cn(-c4ccc(CNCCCF)cc4)c(=O)nc3[nH]2)cc1F [Compound 262]
46 | > 16 | CCOCCOc1ccccc1-c1cc2cn(-c3ccc(CN)cc3)c(=O)nc2[nH]1 [Compound 1131]
47 | > 16 | CN1CCN(C(=O)c2ccc(-c3cn4cc(-c5ccc(CNCCCN)cc5)c(=O)nc4[nH]3)cc2)CC1 [Compound 699]
48 | < 16 | N=C(N)NCCCNCc1ccc(-n2cc3cc(-c4cc(C(=O)N5CCN(c6ccc(F)cc6)CC5)cc(N5CCNCC5)c4)[nH]c3nc2=O)cc1 [Compound 755]
49 | > 16 | NC(=O)c1ccc(-n2cc3cc(-c4ccc(S(=O)(=O)N(CCOc5ccc(F)cc5)C5CCNCC5)cc4)[nH]c3nc2=O)cc1 [Compound 1080]
50 | > 16 | NCCCNCc1ccc(-n2cc3cc(-c4ccc(OC(F)(F)F)cc4)[nH]c3nc2=O)cc1 [Compound 296]
51 | > 16 | NCCCNCc1ccc(-n2cc3cc(-c4ccncc4)[nH]c3nc2=O)cc1 [Compound 633]
52 | > 16 | NCCCNCc1ccc(-n2cc3cc(CCC4CCCCC4)[nH]c3nc2=O)cc1 [Compound 609]
